Read-outs that look alike come from different tables or passages of the source.
Experiments:
[1] = system: mitochondrial membrane potential; assay type: cell-based, mouse; settings: for ΔΨm (composite Z-score): normalized score vs mock-treated (DMSO) wells
reactive oxygen species = assay type: cell-based, mouse; settings: for ROS (composite Z-score): normalized score vs mock-treated (DMSO) wells
OXPHOS gene expression = assay type: cell-based, mouse; settings: for GE-HTS (composite Z-score): normalized score vs mock-treated (DMSO) wells
nuOXPHOS transcripts = assay type: cell-based, mouse; settings: for nucOX (composite Z-score): normalized score vs mock-treated (DMSO) wells
mtOXPHOS transcripts = assay type: cell-based, mouse; settings: for mitoOX (composite Z-score): normalized score vs mock-treated (DMSO) wells
cytochrome c = assay type: cell-based, mouse; settings: for cyt c (composite Z-score): normalized score vs mock-treated (DMSO) wells
Chain of cytochrome c (P62897 whole entry): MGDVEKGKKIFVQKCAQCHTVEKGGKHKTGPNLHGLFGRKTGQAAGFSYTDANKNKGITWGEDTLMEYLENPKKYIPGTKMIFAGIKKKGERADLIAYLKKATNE

C2C12 myotubes = settings: for Viability (composite Z-score): normalized score vs mock-treated (DMSO) wells
[2] = system: cellular dehydrogenase activity; settings: for MTT (composite Z-score): normalized score vs mock-treated (DMSO) wells
[3] = 20 μM, composite Z-score vs DMSO
[4] = 24.06 μM, composite Z-score vs DMSO
[5] = Table 4, C2C12 myotubes, 48 h, JC-1, composite Z-score
[6] = composite Z-score vs DMSO, Conc 20 μM
[7] = Table 4, C2C12 myotubes, 48 h, composite Z-score
[8] = composite Z-score vs mock-treated (DMSO) wells, Conc 20 μM
[9] = normalized composite Z-score vs mock-treated (DMSO) wells, Conc 20 μM
[10] = composite Z-score vs mock-treated (DMSO) wells, concentration of each compound in μM
[11] = 18.76 μM, composite Z-score vs DMSO
[12] = composite Z-score vs DMSO wells, Conc 20 μM

Compound: CC[N+](C)(C)c1cccc(O)c1 [edrophonium]
- ΔΨm [1, 3]: 0.391
- ΔΨm [1, 4]: −0.161
- ROS (reactive oxygen species; [3]): 1.006
- ROS (reactive oxygen species; [4]): 0.343
- GE-HTS (OXPHOS gene expression; [3]): −0.806
- GE-HTS (OXPHOS gene expression; [4]): −0.803
- nucOX (nuOXPHOS transcripts; [3]): −1.001
- nucOX (nuOXPHOS transcripts; [4]): −0.611
- mitoOX (mtOXPHOS transcripts; [3]): −0.183
- mitoOX (mtOXPHOS transcripts; [4]): −1.083
- cyt c (cytochrome c; [3]): 1.045
- cyt c (cytochrome c; [4]): 0.177
- Viability (C2C12 myotubes; [3]): −0.291
- Viability (C2C12 myotubes; [4]): 0.250
- MTT [2, 3]: −0.015
- MTT [2, 4]: 0.901

Compound: COc1cc2c(cc1OC)[C@@H]1C(=O)c3ccc4c(c3O[C@@H]1CO2)CC(C(C)C)O4 (stereo partly drawn) [beta-dihydrorotenone, reference compound]
- ΔΨm [1, 5]: 1.079
- ΔΨm [1, 6]: 1.079
- ROS (reactive oxygen species; [7]): 0.122
- ROS (reactive oxygen species; [6]): 0.122
- GE-HTS (OXPHOS gene expression; [6]): −0.818
- nucOX (nuOXPHOS transcripts; [6]): −0.828
- mitoOX (mtOXPHOS transcripts; [6]): −0.695
- cyt c (cytochrome c; [6]): −0.408
- Viability (C2C12 myotubes; [7]): −0.184
- Viability (C2C12 myotubes; [6]): −0.184
- MTT [2, 7]: −2.771
- MTT [2, 6]: −2.771

Compound: COc1ccc2c(c1OC)OC[C@@H](c1ccc(OC)c(OC)c1OC)C2 [duartin, dimethyl ether]
- ΔΨm [1, 8]: 0.556
- ROS (reactive oxygen species; [8]): 0.796
- GE-HTS (OXPHOS gene expression; [8]): −1.156
- nucOX (nuOXPHOS transcripts; [8]): −1.362
- mitoOX (mtOXPHOS transcripts; [8]): −0.571
- cyt c (cytochrome c; [8]): −0.531
- Viability (C2C12 myotubes; [8]): 1.330
- MTT [2, 8]: −0.975

Compound: theaflavin monogallate
- ΔΨm [1, 9]: −0.581
- ROS (reactive oxygen species; [9]): −0.820
- GE-HTS (OXPHOS gene expression; [9]): −0.211
- nucOX (nuOXPHOS transcripts; [9]): −0.017
- mitoOX (mtOXPHOS transcripts; [9]): −0.612
- cyt c (cytochrome c; [9]): 1.252
- Viability (C2C12 myotubes; [9]): 0.945
- MTT [2, 9]: −0.786

Compound: C[C@@H]1[C@H]2[C@H](O[C@@H]3O[C@H](CO)[C@@H](O)[C@H](O)[C@H]3O)OC=C(C(=O)O)[C@H]2C[C@@H]1O [loganic acid]
- ΔΨm (composite Z-score) ([1]; Conc 20 μM): −0.193
- ROS (composite Z-score) (reactive oxygen species; Conc 20 μM): −0.346
- GE-HTS (composite Z-score) (OXPHOS gene expression; Conc 20 μM): −0.463
- nucOX (composite Z-score) (nuOXPHOS transcripts; Conc 20 μM): −0.274
- mitoOX (composite Z-score) (mtOXPHOS transcripts; Conc 20 μM): −0.800
- cyt c (composite Z-score) (cytochrome c; Conc 20 μM): −0.485
- Viability (composite Z-score) (C2C12 myotubes; Conc 20 μM): 1.214
- MTT (composite Z-score) ([2]; Conc 20 μM): −0.538

Compound: 3beta-hydroxydeoxydesacetoxy-7-oxogedunin
- ΔΨm (composite Z-score) ([1]; Conc 20 μM): −0.064
- ROS (composite Z-score) (reactive oxygen species; Conc 20 μM): 0.662
- GE-HTS (composite Z-score) (OXPHOS gene expression; Conc 20 μM): −0.864
- nucOX (composite Z-score) (nuOXPHOS transcripts; Conc 20 μM): −1.027
- mitoOX (composite Z-score) (mtOXPHOS transcripts; Conc 20 μM): −0.319
- cyt c (composite Z-score) (cytochrome c; Conc 20 μM): 0.306
- Viability (composite Z-score) (C2C12 myotubes; Conc 20 μM): 0.688
- MTT (composite Z-score) ([2]; Conc 20 μM): −0.615

Compound: avocatin B
- ΔΨm [1, 10]: 0.024
- ROS (reactive oxygen species; [10]): 1.229
- GE-HTS (OXPHOS gene expression; [10]): −0.935
- nucOX (nuOXPHOS transcripts; [10]): −0.863
- mitoOX (mtOXPHOS transcripts; [10]): −0.852
- cyt c (cytochrome c; [10]): 0.710
- Viability (C2C12 myotubes; [10]): −0.869
- MTT [2, 10]: −1.119

Compound: COc1c2occc2cc2ccc(=O)oc12 [methoxsalen]
- ΔΨm [1, 3]: −0.034
- ROS (reactive oxygen species; [3]): 0.310
- GE-HTS (OXPHOS gene expression; [3]): −0.562
- nucOX (nuOXPHOS transcripts; [3]): −0.513
- mitoOX (mtOXPHOS transcripts; [3]): −0.489
- cyt c (cytochrome c; [3]): −0.889
- Viability (C2C12 myotubes; [3]): 0.416
- MTT [2, 3]: −0.976

Compound: O=c1cc(-c2ccc(O)cc2)oc2cc(O[C@@H]3O[C@H](CO)[C@@H](O)[C@H](O)[C@H]3O)cc(O)c12 [cosmosiin]
- ΔΨm [1, 6]: 0.053
- ROS (reactive oxygen species; [6]): −0.052
- GE-HTS (OXPHOS gene expression; [6]): −0.433
- nucOX (nuOXPHOS transcripts; [6]): −0.287
- mitoOX (mtOXPHOS transcripts; [6]): −0.611
- cyt c (cytochrome c; [6]): −0.009
- Viability (C2C12 myotubes; [6]): 0.141
- MTT [2, 6]: −0.801

Compound: COc1cc2c(cc1OC)[C@@H]1C(=O)c3c(O)cc4c(c3O[C@@H]1CO2)C=CC(C)(C)O4 [alpha-toxicarol, reference compound]
- ΔΨm [1, 5]: 0.820
- ΔΨm [1, 6]: 0.820
- ROS (reactive oxygen species; [7]): 0.101
- ROS (reactive oxygen species; [6]): 0.101
- GE-HTS (OXPHOS gene expression; [6]): −0.046
- nucOX (nuOXPHOS transcripts; [6]): 0.124
- mitoOX (mtOXPHOS transcripts; [6]): −0.345
- cyt c (cytochrome c; [6]): −2.637
- Viability (C2C12 myotubes; [7]): 0.304
- Viability (C2C12 myotubes; [6]): 0.304
- MTT [2, 7]: −1.982
- MTT [2, 6]: −1.982

Compound: COc1cc(O)c2c(=O)cc(-c3ccc(OC)c(-c4c(O)cc(O)c5c(=O)cc(-c6ccc(O)cc6)oc45)c3)oc2c1 [ginkgetin]
- ΔΨm [1, 6]: −4.324
- ROS (reactive oxygen species; [6]): −1.347
- GE-HTS (OXPHOS gene expression; [6]): −2.228
- nucOX (nuOXPHOS transcripts; [6]): −2.585
- mitoOX (mtOXPHOS transcripts; [6]): −1.101
- cyt c (cytochrome c; [6]): −3.027
- Viability (C2C12 myotubes; [6]): −1.523
- MTT [2, 6]: −3.855

Compound: C=Cc1c(C)c2cc3nc(c4c5[n-]c(cc6nc(cc1[n-]2)C(C)=C6CC)c(C)c5C(=O)[C@@H]4C(=O)OC)[C@@H](CCC(=O)O)[C@@H]3C.[Mg+2] [chlorophyllide]
- ΔΨm [1, 10]: −0.783
- ROS (reactive oxygen species; [10]): 1.042
- GE-HTS (OXPHOS gene expression; [10]): 0.282
- nucOX (nuOXPHOS transcripts; [10]): 0.303
- mitoOX (mtOXPHOS transcripts; [10]): 0.224
- cyt c (cytochrome c; [10]): −1.157
- Viability (C2C12 myotubes; [10]): −0.178
- MTT [2, 10]: 0.307

Compound: Nc1ccc(/N=N/c2ccccc2)c(N)n1 [phenazopyridine]
- ΔΨm [1, 11]: 0.126
- ΔΨm [1, 3]: 1.263
- ROS (reactive oxygen species; [11]): 0.587
- ROS (reactive oxygen species; [3]): 1.911
- GE-HTS (OXPHOS gene expression; [11]): −0.561
- GE-HTS (OXPHOS gene expression; [3]): 0.362
- nucOX (nuOXPHOS transcripts; [11]): −0.323
- nucOX (nuOXPHOS transcripts; [3]): 0.207
- mitoOX (mtOXPHOS transcripts; [11]): −0.930
- mitoOX (mtOXPHOS transcripts; [3]): 0.544
- cyt c (cytochrome c; [11]): 0.678
- cyt c (cytochrome c; [3]): 0.335
- Viability (C2C12 myotubes; [11]): −0.413
- Viability (C2C12 myotubes; [3]): 0.627
- MTT [2, 11]: −2.094
- MTT [2, 3]: −0.692

Compound: Cc1onc(-c2ccccc2Cl)c1C(=O)N[C@@H]1C(=O)N2[C@@H]1SC(C)(C)[C@@H]2C(=O)O [cloxacillin]
- ΔΨm [1, 3]: −0.339
- ROS (reactive oxygen species; [3]): 0.259
- GE-HTS (OXPHOS gene expression; [3]): −0.568
- nucOX (nuOXPHOS transcripts; [3]): −0.506
- mitoOX (mtOXPHOS transcripts; [3]): −0.508
- cyt c (cytochrome c; [3]): 0.459
- Viability (C2C12 myotubes; [3]): −0.395
- MTT [2, 3]: −1.769

Compound: C[C@@H]1CC[C@H]2[C@@H](C)C(=O)O[C@@H]3O[C@@]4(C)CC[C@@H]1[C@]32OO4 [artemisinin]
- ΔΨm [1, 12]: −0.832
- ROS (reactive oxygen species; [12]): 0.123
- GE-HTS (OXPHOS gene expression; [12]): 0.704
- nucOX (nuOXPHOS transcripts; [12]): 0.537
- mitoOX (mtOXPHOS transcripts; [12]): 0.903
- cyt c (cytochrome c): 0.522
- cyt c (cytochrome c; [12]): 1.104
- Viability (C2C12 myotubes; [12]): 0.336
- MTT [2, 12]: 0.616

Compound: COc1cc2c(cc1-c1coc3c4c(c(OC)cc3c1=O)OC(C)(C)C=C4)OCO2 [ichthynone, reference compound]
- ΔΨm (composite Z-score) ([1]; Conc 20 μM): −0.325
- ROS (composite Z-score) (reactive oxygen species; Conc 20 μM): 1.842
- GE-HTS (composite Z-score) (OXPHOS gene expression; Conc 20 μM): −0.217
- nucOX (composite Z-score) (nuOXPHOS transcripts; Conc 20 μM): −0.088
- mitoOX (composite Z-score) (mtOXPHOS transcripts; Conc 20 μM): −0.466
- cyt c (composite Z-score) (cytochrome c; Conc 20 μM): 0.001
- Viability (composite Z-score) (C2C12 myotubes; Conc 20 μM): 0.234
- MTT (composite Z-score) ([2]; Conc 20 μM): −0.681

Compound: C[C@@H]1O[C@@H](O[C@H]2[C@H](O[C@H]3CC[C@@]4(C)[C@@H](CC[C@]5(C)[C@@H]4CC=C4[C@@H]6CC(C)(C)CC[C@]6(C(=O)O)CC[C@]45C)[C@]3(C)CO)OC[C@H](O)[C@@H]2O)[C@H](O)[C@H](O)[C@H]1O [sapindoside A]
- ΔΨm [1, 6]: −3.760
- ROS (reactive oxygen species; [6]): −2.825
- GE-HTS (OXPHOS gene expression; [6]): −1.176
- nucOX (nuOXPHOS transcripts; [6]): −1.786
- mitoOX (mtOXPHOS transcripts; [6]): 0.322
- cyt c (cytochrome c; [6]): −4.058
- Viability (C2C12 myotubes; [6]): −3.886
- MTT [2, 6]: −4.558
